Values of other authors in US20250339398A1, “TREATMENT OF SLEEP DISTRUBANCES IN AUTISM SPECTRUM DISORDER PATIENTS” (Vanda Pharmaceuticals Inc., priority 2021, published 2025).

Key:
[1] = target: T1, MT2 receptor (Homo sapiens, UniProt P49286); conditions: MT2 receptor versus MT1 receptor
T1 sequence (P49286 1-362): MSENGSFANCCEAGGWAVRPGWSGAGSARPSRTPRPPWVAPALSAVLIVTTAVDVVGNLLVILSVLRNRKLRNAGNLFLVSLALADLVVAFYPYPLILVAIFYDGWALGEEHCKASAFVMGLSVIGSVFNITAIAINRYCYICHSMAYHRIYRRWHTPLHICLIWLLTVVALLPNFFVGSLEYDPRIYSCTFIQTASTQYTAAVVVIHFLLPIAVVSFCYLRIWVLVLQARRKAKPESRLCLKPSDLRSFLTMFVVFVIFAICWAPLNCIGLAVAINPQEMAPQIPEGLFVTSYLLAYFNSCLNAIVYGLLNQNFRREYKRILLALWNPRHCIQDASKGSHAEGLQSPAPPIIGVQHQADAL

[2] = previous clinical studies in healthy volunteers, primary insomnia, Non-24, pediatric SMS

linearity of pharmacokinetics (doses ranging from 3 mg to 300 mg): linear
absolute bioavailability (in vivo): 38%
SMILES: CCC(=O)NC[C@@H]1C[C@H]1c1cccc2c1CCO2 [Tasimelteon, tasimelteon]
affinity for the MT2 receptor relative to the MT1 receptor [1]: greater affinity for the MT2 receptor than the MT1 receptor
safety and tolerability [2]: safe and well-tolerated
